Several values for one entry are separate records, joined by “and”; a condition that tells them apart may be missing. Equal entries are not always repeated.
Each molecule was assayed against Nonstructural protein 3 (Zika virus, UniProt A0A024AXB9) (assay: Functional biochemical assay to identify treatments for viral infectious disease that targets Zika NS2B-NS3 protease. Utilizing a direct enzyme activity measurement method, reading the fluorescence intensity is used to characterize the relative potency of inhibitors as IC50.).
Design: species or system PRVABC59

Chain of Nonstructural protein 3 (A0A024AXB9 whole entry): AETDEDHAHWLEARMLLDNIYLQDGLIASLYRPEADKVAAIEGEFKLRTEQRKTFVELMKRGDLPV

Compound	IC50
Cc1c(C(=O)Nc2cc(CCCN)ccn2)cc(C2CCC2)n1C	> 99.5 µM
Cc1c(C(=O)Nc2cc(CCCN)ccn2)cc(C(C)C)n1C	> 99.5 µM
Cc1cc(NC(=O)c2cc(C3CC3)n(C)c2C)ncc1S(N)(=O)=O	> 99.5 µM
O=C(O)C[C@H]1CN(c2ccc(-c3cc(Cl)cc(NC(=O)OCc4ccccc4)c3)cn2)CCO1	> 99.5 µM
Cc1c(C(=O)NCc2ccc(CN)cc2)cc(C2CC2)n1C	> 99.5 µM
O=C(Nc1cc(Cl)cc(-c2cnn(Cc3ccc(C(=O)O)cc3)c2)c1)OCc1ccccc1	39.4 µM
NCc1cc(NC(=O)c2cc(Cl)cc(NC(=O)OCc3ccccc3)c2)cc(C2=CC[C@H](C(=O)O)CC2)c1	14.6 µM
C=C1C[C@H](c2cc(Cl)cc(NC(=O)OCc3ccccc3)c2)[C@@H](c2cccc(-c3nn[nH]n3)c2)C1	18.9 µM
NCc1cc(NC(=O)c2cc(Cl)cc(NC(=O)OCc3ccccc3)c2)cc(-c2csc(CC(=O)O)c2)c1	15 µM
Cc1c(C(=O)Nc2cc(-c3ccccn3)c(Br)cn2)cc(C2CC2)n1C	> 99.5 µM
O=C(O)c1cc2cc(-c3cc(Cl)cc4ncccc34)ccc2[nH]1	40.3 µM
NCc1nc2cc(Cl)ccc2n1Cc1ccc(-c2nn[nH]n2)cc1	> 99.5 µM
FC(F)(F)Oc1cc(Cl)cc2c(Cc3ccc(-c4nnn[nH]4)cc3)c[nH]c12	34.1 µM
Cc1c(C(=O)Nc2cc(-c3cnn(C)c3)ccn2)cc(C2CC2)n1C	> 99.5 µM
N#Cc1cc(-c2ccc3[nH]c(C(=O)O)cc3c2)c2nc[nH]c2c1	> 99.5 µM
Cc1c(C(=O)Nc2cc(C(N)=O)c3ccccc3n2)cc(C2CC2)n1C	> 99.5 µM
Cc1c(C(=O)Nc2nccc3c2CNCC3)cc(C2CC2)n1C	> 99.5 µM
Cc1c(C(=O)Nc2cc(CCCN)ccn2)cc(C2CCCCC2)n1C	> 99.5 µM
Cc1cc(CC(=O)O)ccc1Cc1c[nH]c2ccc(Cl)cc12	> 99.5 µM
Cc1c(C(=O)Nc2cc(C(=O)N(C)C)ccn2)cc(C2CC2)n1C	> 99.5 µM
NCc1cc(NC(=O)c2cc(Cl)cc(NC(=O)OCc3ccccc3)c2)cc(-c2cccc(CC(=O)O)c2)c1	39.6 µM
O=C(O)Cc1cc2c(c(Cc3c[nH]c4ccc(Cl)cc34)c1)OCC2	> 99.5 µM
O=C(O)c1cc2cc(-c3cc(Cl)c4[nH]c(=O)oc4c3)ccc2[nH]1	90.2 µM

Compound	IC50
NCc1cc(NC(=O)c2cc(Cl)cc(NC(=O)OCc3ccccc3)c2)cc(C2=CC[C@H](C(=O)O)C2)c1	7.96 µM
Clc1ccc2c(c1)ncn2Cc1ccc(-c2nn[nH]n2)cc1	> 99.5 µM
NCCCc1ccnc(NC(=O)c2csc(C3CC3)n2)c1	> 99.5 µM
O=C(Nc1ccc2c(c1)CCCN2)c1cc(Cl)cc2[nH]ncc12	> 99.5 µM
O=C(O)c1nccn2ncc(Cc3c[nH]c4ccc(Cl)cc34)c12	> 99.5 µM
Cc1ccc(-c2cc(CN)cc([C@@H]3C[C@H]3c3cc(Cl)cc(NC(=O)OCc4ccccc4)c3)c2)cn1	3.56 µM
COC(=O)c1cc(Br)cc2c(Cc3ccc(-c4nnn[nH]4)cc3)c[nH]c12	> 99.5 µM
O=C(NCC1CCNCC1)c1cc(Cl)cc2[nH]ncc12	74.6 µM
Cc1c(C(=O)O)sc2ncc(Cc3c[nH]c4ccc(Cl)cc34)cc12	97.2 µM
O=C(c1cc(Cl)cc2[nH]ncc12)N1CCC(C2CCNCC2)CC1	> 99.5 µM
Cc1ccc(NC(=O)c2cc(Cl)cc3[nH]ncc23)cc1N	> 99.5 µM
NC[C@H]1CC[C@H](NC(=O)c2cc(Cl)cc3[nH]ncc23)CC1	20.1 µM
CC(C)c1nc2cc(Cl)ccc2n1Cc1ccc(-c2nn[nH]n2)cc1	> 99.5 µM
N[C@H]1CCc2cc(NC(=O)c3cc(Cl)cc4[nH]ncc34)ccc21	5.21 µM
O=C(c1cc(Cl)cc2[nH]ncc12)N1CCC[C@H]1C1CCNCC1	> 99.5 µM
CN1C(=O)[C@H](c2cc(Cl)cc(NC(=O)OCc3ccccc3)c2)N(c2cccc(-c3nn[nH]n3)c2)C1=O	35.3 µM
Cc1c(C(=O)Nc2cc(C#N)c3ccccc3n2)cc(C2CC2)n1C	> 99.5 µM
O=C(Nc1cc(Cl)cc(-c2cc(NCc3ccccc3)c(C(=O)O)cn2)c1)OCc1ccccc1	14 µM
Cc1cc(-c2ccc3[nH]c(C(=O)O)cc3c2)c2cc[nH]c(=O)c2c1	> 99.5 µM
NC(=O)c1[nH]c2ccc(Br)cc2c1Cc1ccc(-c2nnn[nH]2)cc1	> 99.5 µM
Cn1cc(-c2cc(CN)cc([C@@H]3C[C@H]3c3cc(Cl)cc(NC(=O)OCc4ccccc4)c3)c2)cn1	13.3 µM
Cc1oc(C2CC2)nc1C(=O)Nc1cc(CCCN)ccn1	> 99.5 µM

Further lines, results first:

IC50	Compound
27.4 µM	N#C[C@]1(Nc2ccc3c(c2)CNC3)C(=O)Nc2ccccc21
> 99.5 µM	O=C(Nc1ccc2c(c1)CNC2)c1ccc2c(c1)NCCO2
> 99.5 µM	CCc1cc(C(=O)Nc2ccc3c(c2)CNC3)sc1-c1ccc(Cl)cc1
25.1 µM	O=C(Nc1ccc2c(c1)CNC2)c1ccccc1-n1cccc1
0.091 µM and 0.084 µM	O=C(Nc1ccc2c(c1)CNC2)c1cc(Cl)cc(-n2cccc2)c1
62.1 µM	O=C(Nc1ccc2c(c1)CNC2)c1ccn[nH]1
> 99.5 µM	O=C(Nc1ccc2c(c1)CNC2)C1CCCCC1
0.086 µM and 0.054 µM and 0.124 µM and 0.138 µM and 0.089 µM	CC(C)NC(=O)[C@H](Nc1ccc2c(c1)CNC2)c1cc(Cl)cc2[nH]ncc12
0.216 µM	O=C(Nc1ccc2c(c1)CNC2)c1cc(Cl)cc(C2CC2)c1
0.354 µM	Nc1cc(Cl)cc(C(=O)Nc2ccc3c(c2)CNC3)c1N
32.3 µM	O=C1OCc2ccc(NC(=O)c3cc(Cl)cc4[nH]ncc34)cc21
46.1 µM	O=C(Nc1ccc2c(c1)CNC2)c1n[nH]c2ncc(Br)cc12
20.1 µM	CCCc1sc(C(=O)Nc2ccc3c(c2)CNC3)cc1CC
1.99 µM	N#Cc1ccc(Cl)c(C(=O)Nc2ccc3c(c2)CNC3)c1
4.34 µM	CNCc1ccc(NC(=O)c2cc(Cl)cc3[nH]ncc23)cc1
> 99.5 µM	O=C(Nc1ccc2c(c1)CNC2)c1ccnc(CO)c1
23.3 µM	O=C(Nc1ccc2c(c1)CNC2)c1c[nH]c2ncc(F)cc12
2.51 µM	O=C(Nc1ccc([C@H]2CCNC2)cc1)c1cc(Cl)cc2[nH]ncc12

IC50	Compound
33.1 µM	CCOCCCN1Cc2ccc(NC(=O)c3cc(Cl)cc4[nH]ncc34)cc2C1
0.129 µM	O=C(Nc1ccc2c(c1)CNC2)c1cccc2[nH]ncc12
> 99.5 µM	CNC(=O)[C@]1(Nc2ccc3c(c2)CNC3)C(=O)Nc2ccccc21
3.72 µM	Cc1ccc(C(C)C)c(C(=O)Nc2ccc3c(c2)CNC3)c1
1.07 µM	O=C(Nc1ccc2c(c1)CNC2)c1cc(C(F)(F)F)cc2[nH]ccc12
> 99.5 µM	O=C(Nc1ccc2c(c1)CNC2)[C@H]1CCc2ccccc21
> 99.5 µM	O=C(Nc1ccc2c(c1)CNC2)c1ccncc1
61.7 µM	O=C(Nc1ccc2c(c1)CNC2)c1ncc(Br)s1
34.6 µM	CNC(=O)[C@]1(Nc2ccc3c(c2)CNC3)CCc2ccc(Cl)cc21
0.187 µM	CCc1nc2c(C(=O)Nc3ccc4c(c3)CNC4)cc(Br)cc2[nH]1
> 99.5 µM	Clc1ccc2nc(C3CCOCC3)n(Cc3ccc4c(c3)CNC4)c2c1
> 99.5 µM	O=C(Nc1ccc2c(c1)C[C@H](O)C2)c1cc(Cl)cc2[nH]ncc12
> 99.5 µM	O=C1CCc2cc(NC(=O)c3cc(Cl)cc4[nH]ncc34)ccc2N1
1.85 µM	Cc1ncc(Br)cc1C(=O)Nc1ccc2c(c1)CNC2
> 99.5 µM	CCc1nccn1CC(=O)Nc1ccc2c(c1)CNC2
> 99.5 µM	O=C(CSc1cccc(Br)c1)Nc1ccc2c(c1)CNC2
0.316 µM	CC(C)c1nc2c(C(=O)Nc3ccc4c(c3)CNC4)cc(Br)cc2[nH]1

From ChEMBL document CHEMBL5604062, “ASAP - ZIKV NS2B-NS3 protease fluorescence dose response” (2024)
